Test results from patent publication US20080134931A1, “Plasterboards Provided With Antimicrobial Effect” (priority 2005, published 2008).
Where two headings read alike, the source gives them in different places.

Legend:
[1] = tested on: mixture of moulds: Penicillium glaucum, Chaetomium globosum, Aspergillus niger, Aureobasidium pullulans; experiment: Microbiological resistance of plasterboard treated with OPP in the gypsum core after inoculation with a fungal mixture, humid environment
From the text: For checking the effectiveness of a plasterboard treated with OPP in the gypsum core, the resistance was investigated in the laboratory after inoculation with a fungal mixture. For this purpose, sandwich-type plasterboard samples having the dimensions 14×5 cm are transferred to a 1 litre powder bottle and suspended by the bottle cap. At the start of the experiment, the test specimens thus prepared are immersed once in a mixture of the following moulds to simulate a strong fungal attack:
The mould species are material pests well known to the person skilled in the art and are therefore suitable for a qualifying conclusion about the degree of antimicrobial protection of a product treated with an OPP or the sodium or potassium salt thereof and optionally further active components. The sample boards are stored at room temperature over a period of up to 8 weeks, a water vapour-saturated atmosphere being continuously ensured by maintaining the initial amount of water at the bottom of the vessel (direct contact between plasterboard and water is not permitted). The assessment of the test specimens is effected at certain times and is carried out according to the following rating scheme:
0=no growth on the surface
1=slight growth (<10% of the surface infested)
2=moderate growth (<50% of the surface infested)
3=strong growth on the surface
Microbiological resistance of a plasterboard contaminated once in a humid environment

Aspergillus flavus = experiment: Minimum inhibitory concentration and synergism (Kull synergy index) of OPP/TBZ; assay type: cell-based; details: read-out: Amount of pure active substances which suppress growth (QA, QB; minimum inhibitory concentration)
From the text: For improving the overall performance of an antimicrobial treatment, the use of active substance mixtures is customary for compensating, for example, for gaps in the activity of one component or for optimizing the costs of preservation.
The synergism found for the mixture according to the invention can be determined via the following mathematical formula (cf. F. C. Kull, P. C. Elisman, H. D. Sylwestrowicz and P. K. Mayer, Appl. Microbiol. 9, 538 (1961):
Qa=amount of component A in the active substance mixture which achieves the desired effect, i.e. no microbial growth,
QA=amount of component A which, when used alone, suppresses the growth of the micro-organisms,
Qb=amount of component B in the active substance mixture which suppresses the growth of the micro-organisms,
QB=amount of component B which, when used alone, suppresses the growth of the micro-organisms.
Synergism of o-phenylphenol (OPP)/thiabendazole (TBZ)
Using the test micro-organism, Aspergillus flavus, the minimum inhibitory concentration of the active substance combinations listed in Table 2 were investigated.

| MIC (Aspergillus flavus; substance used alone) | Compound | Rating (mould growth on plasterboard surface) ([1]; 300 ppm OPP in the gypsum core, 1 week, water vapour-saturated atmosphere, room temperature) | Rating (mould growth on plasterboard surface) ([1]; 300 ppm OPP in the gypsum core, 3 weeks) | Rating (mould growth on plasterboard surface) ([1]; 300 ppm OPP in the gypsum core, 4 weeks) | Rating (mould growth on plasterboard surface) ([1]; 300 ppm OPP in the gypsum core, 8 weeks) | Rating (mould growth on plasterboard surface) ([1]; 500 ppm OPP in the gypsum core, 1 week) | Rating (mould growth on plasterboard surface) ([1]; 500 ppm OPP in the gypsum core, 3 weeks) | Rating (mould growth on plasterboard surface) ([1]; 500 ppm OPP in the gypsum core, 4 weeks) | Rating (mould growth on plasterboard surface) ([1]; 500 ppm OPP in the gypsum core, 8 weeks) | Rating (mould growth on plasterboard surface) ([1]; 750 ppm OPP in the gypsum core, 1 week) | Rating (mould growth on plasterboard surface) ([1]; 750 ppm OPP in the gypsum core, 3 weeks) | Rating (mould growth on plasterboard surface) ([1]; 750 ppm OPP in the gypsum core, 4 weeks) | Rating (mould growth on plasterboard surface) ([1]; 750 ppm OPP in the gypsum core, 8 weeks) | Concentration of use from which good effectiveness was found ([1]; based on the weight of the gypsum core) | MIC (Aspergillus flavus) |
| --- | --- | --- | --- | --- | --- | --- | --- | --- | --- | --- | --- | --- | --- | --- | --- |
|  | Oc1ccccc1-c1ccccc1 [OPP, o-phenylphenol] | 0/0 | 0/0 | 0/0 | 0/0 | 0/0 | 0/0 | 0/0 | 0/0 | 0/0 | 0/0 | 0/0 | 0/0 | ≥ 300 ppm | 100 µg/mL |
| 500 µg/mL | c1ccc2[nH]c(-c3cscn3)nc2c1 [TBZ, thiabendazole, reference compound] |  |  |  |  |  |  |  |  |  |  |  |  |  |  |
